Literature values in US10976308B2, “Plant-derived nanofibrillar cellulose hydrogel for cell culture and chemical testing” (UPM-KYMMENE CORPORATION, priority 2014, dated 2021).

Columns and labels:
[1] = by Khetani et al. 2013
3D liver models = details: by Khetani et al. 2013

Row | Cmax [1] [µM] | Structure (SMILES) | Toxicity in 3D liver models (3D liver models)
1 | 8 | O=C(O)Cc1ccccc1Nc1c(Cl)cccc1Cl [diclofenac] | –
2 | 0.2 | CC(C)NCC(O)COc1cccc2ccccc12 (stereo not shown) [propranolol] | not detected in the 3D liver models
3 | – | CN(C)CCCN1c2ccccc2CCc2ccccc21 [imipramine] | toxicity is not detected in all 3D models tested
